Experimental data as given in article PMC7288168, “Synthesis and Cytotoxic Activity of Chiral Sulfonamides Based on the 2-Azabicycloalkane Skeleton” (Molecules, 2020).

How the values were obtained:
HUH7 cells = experiment: Neutral red cell viability assay, HUH7; assay type: cell-based, human; settings: Homo sapiens, Huh-7; 24 h treatment, neutral red; read-out: LD50 HUH7 (HCC)
Description: (§1) The human hepatocellular carcinoma (HCC) cell line HUH7 was purchased from ATCC (LGC standards GmbH, Wesel, Germany). The Austrian human HCC cell line AKH12 has been well characterized and was kindly provided by Prof. Bettina Grasl-Kraupp. HUH7 cells were cultured in Dulbecco’s modified Eagle’s medium (Thermo Fisher Scientific, Waltham, MA, USA) containing 10% heat-inactivated fetal bovine serum (FBS) (Sigma-Aldrich, St. Louis, MO, USA), 1% penicillin-streptomycin (10,000 U/mL) (Thermo Fisher Scientific, Waltham, MA, USA), and 1% minimum essential medium nonessential amino acids (100x) (Thermo Fisher Scientific, Waltham, MA, USA). AKH12 cells were cultured in RPMI1640 medium (Sigma-Aldrich, St. Louis, MO, USA) containing 10% heat-inactivated FBS. DAOY and D283Med (short D283) medulloblastoma (MB) cells were purchased from ATCC (LGC standards GmbH, Wesel, Germany). D425Med (short D425) and UW228-2 were provided by Thomas Ströbel from the Institute of Neurology Medical University of Vienna. The cells were cultured in Dulbecco’s modified Eagle’s medium (Sigma-Aldrich, St. Louis, MO, USA) containing 10% FBS (Sigma-Aldrich, St. Louis, MO, USA), 2% L-Glutamine (Sigma-Aldrich, St. Louis, MO, USA), and 0.2% Normocin (Sigma-Aldrich, St. Louis, MO, USA). U-251 MG (short U251) glioblastoma (GBM) cell line was purchased from Sigma-Aldrich and cultured in Dulbecco’s modified Eagle’s medium (Sigma-Aldrich, St. Louis, MO, USA) containing 10% FBS (Sigma-Aldrich, St. Louis, MO, USA), 2% L-Glutamine (Sigma-Aldrich, St. Louis, MO, USA), and 0.2% Normocin (Sigma-Aldrich, St. Louis, Missouri, USA). Human umbilical vein endothelial cells (HUVECs) were provided by Brigitte Winter from the Department of Surgery Medical University of Vienna and were grown in endothelial cell growth medium-2 BulletKitTM (Lonza, Basel, Switzerland) under standard tissue culture conditions. All cells were incubated at 37 °C in a 5% CO2 atmosphere and regularly checked for mycoplasma contamination.
(§2) Cell viability was determined using a neutral red assay, as previously described. The cells were placed in 24-well plates and grown to reach 70–80% confluency prior to treatment. After treatment for 24 h, cells were incubated with neutral red at a concentration of 50 µg/mL in serum-free medium for 2 h at 37 °C. Cells were then washed 2x and incubated with 1% acetic acid in 70% ethanol. The dye concentration was measured photometrically at 562 nm. The percentage of survival was calculated considering DMSO-treated (indicated as 0 µM concentration) cells as 100% control.
(§3) LD50 was defined as the amount of a toxic agent required to eliminate 50% of the cell population. The LD50 was calculated in each experiment from the respective dose–response curve. All experiments were performed in triplicate wells.

HUVEC cells [1] = experiment: Neutral red cell viability assay, HUVEC (Table 1); assay type: cell-based; settings: Table 1, nonmalignant primary cells, 24 h
Description: as §1, §2, §3

AKH12 cells = experiment: Neutral red cell viability assay, AKH12; assay type: cell-based, human; settings: for reduction of cell viability, AKH12: 50 µM, 24 h, first screening; for IC50: Homo sapiens, 24 h treatment, neutral red, read-out: LD50 AKH12 (HCC)
Description: as §1, §2, §3

D425 cells = experiment: Cell viability assay (suspension cell line), MTT/CellTiter Blue, D425; assay type: cell-based, human; settings: for reduction of cell viability, D425: 50 µM, 24 h, first screening; for IC50: Homo sapiens, read-out: LD50 D425 (MB); for D425 cell viability as compared to HUVEC cells: dose-response 24 h, Student's t-test, p ≤0.05 / p ≤0.01; for HUVEC/D425 LD50 Fold Change: ratio of LD50 HUVEC to LD50 D425
Description: as §1, §3
(§4) One day before treatment, 2 × 10^4 of D425Med or HUVEC cells were seeded into 24-well plates and incubated at 37 °C in a humidified atmosphere containing 5% CO2.The cells were treated with different compounds for 24 h. A […] assay using the CellTiter Blue reagent (Promega, Fitchburg, Wisconsin, USA) was performed according to the manufacturer’s protocol. Experiments were performed in triplicate and repeated three times. The percentage of survival was calculated as the ratio using DMSO-treated (indicated as 0 µM concentration) cells as 100% control.

HUVEC cells [2] = experiment: Cell viability assay MTT/CellTiter Blue, HUVEC (Table 2); assay type: cell-based; settings: Table 2, nonmalignant primary cells, 24 h, assay as for D425
Description: as §1, §3, §4

UW228-2 cells = experiment: Neutral red cell viability assay, UW228-2; assay type: cell-based, human; settings: for reduction of cell viability, UW228-2: 50 µM, 24 h, first screening; for IC50: Homo sapiens, UW228-2, 24 h treatment, neutral red, read-out: LD50 UW228-2 (MB)
Description: as §1, §2, §3

D283 cells = experiment: Neutral red cell viability assay, D283; assay type: cell-based, human; settings: for reduction of cell viability, D283: 50 µM, 24 h, first screening; for IC50: Homo sapiens, D283, 24 h treatment, read-out: LD50 D283 (MB)
Description: as §1, §2, §3

DAOY cells = experiment: Neutral red cell viability assay, DAOY; assay type: cell-based, human; settings: for reduction of cell viability, DAOY: 50 µM, 24 h, first screening; for IC50: Homo sapiens, Daoy, 24 h treatment, neutral red, read-out: LD50 DAOY (MB)
Description: as §1, §2, §3

U251 cells = experiment: Neutral red cell viability assay, U251; assay type: cell-based, human; settings: for decrease of cell viability, U251: 50 µM, 24 h, first screening; for IC50: Homo sapiens, U-251, 24 h treatment, neutral red, read-out: LD50 U251 (GBM)
Description: as §1, §2, §3

[3] = 24 h treatment, suspension cell assay

Row | Compound | IC50 (HUH7 cells) | LD50 HUVEC (HUVEC cells [1]) | reduction of cell viability, AKH12 (AKH12 cells) | IC50 (AKH12 cells) | reduction of cell viability, D425 (D425 cells) | IC50 (D425 cells; [3]) | D425 cell viability as compared to HUVEC cells (D425 cells) | HUVEC/D425 LD50 Fold Change (D425 cells) | LD50 HUVEC (HUVEC cells [2]) | reduction of cell viability, UW228-2 (UW228-2 cells) | IC50 (UW228-2 cells) | reduction of cell viability, D283 (D283 cells) | IC50 (D283 cells) | reduction of cell viability, DAOY (DAOY cells) | IC50 (DAOY cells) | decrease of cell viability, U251 (U251 cells) | IC50 (U251 cells) | LD50 D425 (MB) (D425 cells; [3])
1 | COc1ccc(-c2ccc(S(=O)(=O)NCC3C4CCC(C4)N3C(C)c3ccccc3)cc2)cc1 [Compound 10e, 4-(4-Metoxyphenyl)-N-((2-((S)-1-phenylethyl)-(1S,3R,4R)-2-azabicyclo[2.2.1]heptane-3-yl)benzenesulfonamide] | 16.3 ± 0.69 µM | 9.58 ± 1.88 µM | reduced cell viability below LD50 | 32 ± 2.21 µM | reduced cell viability | 11 ± 0.47 µM | significantly reduced D425 cell viability as compared to HUVEC cells | 1.05 | 11.54 ± 2.8 µM | reduced cell viability | 26.7 ± 1.52 µM | reduced cell viability | 15.6 ± 0.59 µM | reduced cell viability | 15.5 ± 1.62 µM | more than 50% | 16 ± 2 µM | 
2 | CC(c1ccccc1)N1CC(NS(=O)(=O)c2cc(C(F)(F)F)cc(C(F)(F)F)c2)C2CCC1C2 [Compound 11g, 3,5-Bis(trifluoromethyl)-N-((2-((S)-1-phenylethyl)-(1S,4S,5R)-2-azabicyclo[3.2.1]octan-4-yl)benzenesulfonamide] | 20 ± 1.1 µM | 18.68 ± 1.97 µM | reduced cell viability below LD50 | 28 ± 1.72 µM | reduced cell viability | 11.2 ± 1.73 µM |  | 1.42 | 16 ± 2.29 µM | reduced cell viability | 20.1 ± 1.34 µM | reduced cell viability | 17.2 ± 0.89 µM | reduced cell viability | 20.4 ± 1.33 µM | more than 50% | 24.8 ± 0.92 µM | 
3 | CC(c1ccccc1)N1C2CCC(C2)C1CNS(=O)(=O)c1ccc(-c2ccc(F)cc2)cc1 [Compound 10c, 4-(4-Fluorophenyl)-N-((2-((S)-1-phenylethyl)-(1S,3R,4R)-2-azabicyclo[2.2.1]heptane-3-yl)benzenesulfonamide] | 17.3 ± 0.98 µM | 13.8 ± 1.14 µM | reduced cell viability below LD50 | 23.3 ± 2.1 µM | reduced cell viability | 5.38 µM | significantly reduced D425 cell viability as compared to HUVEC cells | 3.11 | 16.77 ± 0.71 µM | reduced cell viability | 15.7 ± 1.32 µM | reduced cell viability | 27.2 ± 2.35 µM | reduced cell viability | 16 ± 2.1 µM | more than 50% | 21.3 ± 1.01 µM | 5.38 ± 0.77 µM
4 | CC(c1ccccc1)N1C2CCC(C2)C1CNS(=O)(=O)c1ccc(C(F)(F)F)cc1 [Compound 10f, 4-Trifluoromethyl-N-((2-((S)-1-phenylethyl)-(1S,3R,4R)-2-azabicyclo[2.2.1]heptane-3-yl)benzenesulfonamide] | 24.6 ± 1.54 µM | 17.26 ± 2.33 µM | reduced cell viability below LD50 | 24.7 ± 1.98 µM | reduced cell viability | 20.2 ± 0.79 µM |  | 1.14 | 23.15 ± 2.21 µM | reduced cell viability | 28 ± 2.09 µM | reduced cell viability | 18.8 ± 1.22 µM | reduced cell viability | 15.8 ± 1.09 µM | more than 50% | 32.7 ± 1.32 µM | 
5 | CC(c1ccccc1)N1CC(NS(=O)(=O)c2ccc(-c3ccccc3)cc2)C2CCC1C2 [Compound 11a, 4-Phenyl-N-((2-((S)-1-phenylethyl)-(1S,4S,5R)-2-azabicyclo[3.2.1]octan-4-yl)benzenesulfonamide] | 22.5 ± 1.21 µM | 13.35 ± 0.25 µM | reduced cell viability below LD50 | 28.8 ± 1.53 µM | reduced cell viability | 21.4 ± 0.89 µM |  | 1.01 | 21.71 ± 1.99 µM | reduced cell viability | 16 ± 1.03 µM | reduced cell viability | 20 ± 2.02 µM | reduced cell viability | 18.7 ± 1.88 µM | more than 50% | 18.8 ± 2.11 µM | 
